Experimental data: patent publication US20110045101A1, “FUNGICIDAL SUBSTITUTED AZOLES” (E.I. Du Pont De Nemours and Company, priority 2009, published 2011)
Marks after values point to notes of the source that are not given here.

Tests used:
Format in all cases: in vivo
Conditions in all cases: 100 = 100% disease control
[1] = system: Erysiphe graminis f. sp. tritici; assay: Test J: wheat powdery mildew on wheat seedlings, sprayed the day before inoculation, visual disease rating
How it was run: (§1)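 Acetone solution (3% of final volume) of each compound is suspended in 50/50 acetone/water with 250 ppm Trem® 014. Plants are sprayed to run-off at 200 ppm, equivalent to 500 g/ha, or at 40 ppm for starred values.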

[2] = system: Septoria nodorum; assay: Test F: wheat glume blotch on wheat seedlings, sprayed the day before inoculation, visual disease rating
How it was run: as §1

[3] = system: Botrytis cinerea; assay: Test C: tomato Botrytis on tomato seedlings, sprayed the day before inoculation, visual disease rating
How it was run: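 Disease ratings refer to tomato seedlings treated by run-off spraying with compound suspensions, mostly 200 ppm (500 g/ha equivalent) and in marked cases 40 ppm. Carrier: acetone/purified water 50/50 with 250 ppm polyhydric alcohol ester surfactant, after predissolving in acetone.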

[4] = system: Septoria tritici; assay: Test G: wheat leaf blotch on wheat seedlings, sprayed the day before inoculation, visual disease rating
How it was run: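 Wheat seedlings were sprayed to run-off with test suspension (acetone/water plus surfactant), generally 200 ppm (≈500 g/ha), or 40 ppm where marked. Septoria tritici spores were inoculated the next day; plants were held 48 h at 24°C in saturated atmosphere, then 19 days at 20°C before visual disease rating.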

[5] = system: Puccinia recondita f. sp. tritici; assay: Test H: wheat leaf rust, test suspension sprayed after inoculation of wheat seedlings, visual disease rating
How it was run: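 Wheat seedlings inoculated with P. recondita spores, held 24 h saturated at 20 °C, then 2 days in growth chamber at 20 °C; compound suspension (acetone/water with Trem 014) sprayed to run-off afterwards. Rated visually; 200 ppm (≈500 g/ha) unless marked *, which denotes 40 ppm.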

[6] = system: Alternaria solani; assay: Test D: tomato early blight, sprayed the day before inoculation, visual disease rating
How it was run: as §1

[7] = system: Puccinia recondita f. sp. tritici; assay: Test I: wheat leaf rust on wheat seedlings, sprayed the day before inoculation, visual disease rating
How it was run: as §1

[8] = 200 ppm, 0 = no control relative to controls
[9] = 40 ppm (marked *), 0 = no control

Compound | Test J disease control rating [1, 8] [%] | Test F disease control rating [2, 8] [%] | Test C disease control rating [3, 8] [%] | Test G disease control rating [4, 8] [%] | Test H disease control rating [5, 8] [%] | Test D disease control rating [6, 8] [%] | Test I disease control rating [7, 8] [%] | other results
COc1cc(F)c(-n2c(Cl)nc(CCl)c2-c2ccc(C)cc2)c(F)c1 [compound 581] | – | – | – | – | – | – | – | Test J disease control rating ([1]; 40 ppm (marked *)): 21* %; Test F disease control rating ([2]; 40 ppm (marked *)): 0* %; Test C disease control rating ([3]; 40 ppm (marked *)): 99* %; Test G disease control rating ([4]; 40 ppm (marked *)): 96* %; Test H disease control rating ([5]; 40 ppm (marked *)): 84* %; Test D disease control rating ([6]; 40 ppm (marked *)): 33* %; Test I disease control rating ([7]; 40 ppm (marked *)): 98* %
Fc1cc(-n2c(Cl)nc(Cl)c2-c2cnc3ccccc3c2)ccc1Cl [compound 436] | 0 | 0 | 87 | 81 | 0 | 98 | 0 | –
Fc1cc(F)c(-c2c(Cl)nc(Cl)n2-c2ccc(OC(F)F)cc2)c(F)c1 [compound 598] | 100 | 100 | 100 | 99 | 99 | 100 | 100 | –
Fc1ccc(F)c(-c2c(Br)ncn2-c2ccc(Cl)cc2)c1F [compound 330] | 99 | 0 | 100 | 96 | 9 | 100 | 98 | –
COc1ccc(F)c(-c2c(Cl)nc(C)n2-c2cccc(OC(F)F)c2)c1F [compound 426] | 100 | 100 | 100 | 100 | 27 | 100 | 100 | –
COc1ccc(F)c(-c2c(Cl)ncn2-c2ccc(Br)cc2)c1F [compound 528] | 100 | 99 | 100 | 99 | 15 | 100 | 96 | –
COc1cc(OC)c(Br)c(-n2cnc(Br)c2-c2ccc(Cl)cc2F)c1Cl [compound 642] | – | – | – | – | – | – | – | Test J disease control rating ([1]; 40 ppm (marked *)): 56* %; Test F disease control rating ([2]; 40 ppm (marked *)): 0* %; Test C disease control rating ([3]; 40 ppm (marked *)): 97* %; Test G disease control rating ([4]; 40 ppm (marked *)): 94* %; Test H disease control rating ([5]; 40 ppm (marked *)): 0* %; Test D disease control rating ([6]; 40 ppm (marked *)): 0* %; Test I disease control rating ([7]; 40 ppm (marked *)): 98* %
COc1cc(F)c(-c2c(Cl)nc(Br)n2-c2ccc(C)c(C#N)c2)c(F)c1 [compound 607] | – | – | – | – | – | – | – | Test J disease control rating ([1]; 40 ppm (marked *)): 82* %; Test F disease control rating ([2]; 40 ppm (marked *)): 31* %; Test C disease control rating ([3]; 40 ppm (marked *)): 100* %; Test G disease control rating ([4]; 40 ppm (marked *)): 99* %; Test H disease control rating ([5]; 40 ppm (marked *)): 7* %; Test D disease control rating ([6]; 40 ppm (marked *)): 96* %; Test I disease control rating ([7]; 40 ppm (marked *)): 86* %
COc1ccc(F)c(-c2c(Cl)ncn2-c2ccc(F)cc2)c1F [compound 299] | 99 | 90 | 99 | 97 | 0 | 99 | 99 | –
Cc1ncc(Cc2c(F)cc(F)cc2F)n1-c1ccc(Cl)cc1 [compound 530] | 71 | 0 | 0 | 58 | 0 | 0 | 88 | –
CCc1cccc(-n2c(Cl)nc(Cl)c2-c2c(F)ccc(OC)c2F)c1 [compound 427] | 100 | 99 | 100 | 100 | 0 | 100 | 93 | –
COc1ccc(F)c(-c2c(Cl)nc(C)n2-c2ccc(F)cc2)c1F [compound 334] | – | – | – | – | – | – | – | Test J disease control rating [1, 9]: 100* %; Test F disease control rating [2, 9]: 90* %; Test C disease control rating [3, 9]: 100* %; Test G disease control rating [4, 9]: 93* %; Test H disease control rating [5, 9]: 0* %; Test D disease control rating [6, 9]: 100* %; Test I disease control rating [7, 9]: 100* %
Clc1ccc(-c2c(Cl)nc(Br)n2Cc2cccc(Cl)c2)cc1 [compound 290] | – | – | – | – | – | – | – | Test J disease control rating ([1]; 200 ppm, 0 = no control): 0%; Test F disease control rating ([2]; 200 ppm, 0 = no control): 0%; Test C disease control rating ([3]; 200 ppm, 0 = no control): 95%; Test G disease control rating ([4]; 200 ppm, 0 = no control): 85%; Test H disease control rating ([5]; 200 ppm, 0 = no control): 11%; Test D disease control rating ([6]; 200 ppm, 0 = no control): 0%; Test I disease control rating ([7]; 200 ppm, 0 = no control): 19%
Cc1ncn(-c2ccc(Cl)c(F)c2)c1-c1ccccc1F [compound 318] | 87 | 0 | 100 | 91 | 0 | 16 | 9 | –
Fc1cc(-n2c(Cl)nc(CCl)c2-c2ccc(Br)cn2)ccc1Cl [compound 357] | 0 | 100 | 63 | 50 | 0 | 0 | 55 | –
CCOc1cc(F)c(-c2c(Cl)ncn2-c2ccc(F)cc2)c(F)c1 [compound 702] | 99 | 99 | 100 | 99 | 59 | 100 | 86 | –
Cc1ncc(Cc2c(F)cc(F)cc2F)n1-c1c(Cl)cccc1Cl [compound 536] | 98 | 0 | 89 | 90 | 37 | 68 | 98 | –
Cc1ncn(-c2ccc(Cl)c(F)c2)c1-c1sc(Cl)nc1Cl [compound 377] | 33 | 0 | 0 | 3 | 0 | 0 | 27 | –
Cc1ccc(-n2c(Cl)nc(C)c2-c2c(F)ccc(F)c2F)cc1 [compound 496] | – | – | – | – | – | – | – | Test J disease control rating ([1]; 40 ppm (marked *)): 97* %; Test F disease control rating ([2]; 40 ppm (marked *)): 0* %; Test C disease control rating ([3]; 40 ppm (marked *)): 93* %; Test G disease control rating ([4]; 40 ppm (marked *)): 6* %; Test H disease control rating ([5]; 40 ppm (marked *)): 0* %; Test D disease control rating ([6]; 40 ppm (marked *)): 99* %; Test I disease control rating ([7]; 40 ppm (marked *)): 0* %
COc1cc(F)c(-c2c(Cl)nc(Br)n2-c2ccc(C)cc2F)c(F)c1 [compound 654] | – | – | – | – | – | – | – | Test J disease control rating ([1]; 40 ppm (marked *)): 100* %; Test F disease control rating ([2]; 40 ppm (marked *)): 91* %; Test C disease control rating ([3]; 40 ppm (marked *)): 100* %; Test G disease control rating ([4]; 40 ppm (marked *)): 98* %; Test H disease control rating ([5]; 40 ppm (marked *)): 100* %; Test D disease control rating ([6]; 40 ppm (marked *)): 99* %; Test I disease control rating ([7]; 40 ppm (marked *)): 99* %
